This note sets out measurements from patent publication US11419870B2, “Intermittent dosing of MDM2 inhibitor” (Novartis AG, priority 2014, dated 2022).

The nature of the data set: Pharmacokinetics of Compound A in SJSA-1 tumor-bearing rat (plasma, tumor, tissues; UPLC/MS-MS). Type of data set: in vivo, nude rat. The method, then:
Subcutaneous tumors were induced by concentrating 1.0×10^7 SJSA-1 cells in 50% Matrigel® and injecting in the right flank of Harlan nude rats. Efficacy experiment could start 14 days post cell injection. […] The animals were treated either at a high dose (20 mg/kg i.v. or 27 mg/kg p.o.) once every 3 weeks (q3w) or at a high dose (15 mg/kg p.o.) followed 24 h later by a daily low dose treatment (3 mg/kg p.o., 2 weeks on/2 weeks off).
At the times indicated, animals were anaesthetized by exposure to 2-3% v/v isofluorane in medical oxygen: • Either the animal was killed without recovering from anesthetic after blood sampling. Blood was collected into commercially prepared EDTA coated tubes (Milian, cat #TOM-14C) in order to extract plasma. The tissues were excised, weighed and rapidly frozen in liquid nitrogen. • Or a tumor biopsy was collected by using a biopsy gun and flushing the needle with RLT buffer in Barney rubble tubes (Covaris, cat #520048). In addition, 20 μl of blood may have been collected from the tail vein and diluted in 20 μl of water. After recovery of anesthesia, animals were transferred in their respective cages.
Tissues were homogenized in an equal volume of HPLC-Water (Water for chromatography, Merck) using the Fast Prep®-24 system (M.P. Biomedicals, Irvine, Calif., USA). Following addition of 25 μl of internal standard mixture (1 μg/ml) to analytical aliquots (25 μl) of plasma or tissues homogenate the proteins were precipitated by the addition of 200 μl acetonitrile. The supernatant were transferred in a fresh vial. After evaporation to dryness the samples were re-dissolved in 60 μl acetonitrile/water (1/1 v/v). An aliquot (5 μl) of this solution was separated on a ACQUITY UPLC BEH C18 column (Waters™ 1.7 μm particle size, 2.1×50 mm) with a mobile phase consisting of a mixture of 0.1% formic acid in water (solvent A) and 0.1% formic acid in acetonitrile (solvent B). Gradient programming was used with a flow rate of 600 μl/min. After equilibration with 95% solvent A, 5 μl of sample was injected. Following a latency period of 0.25 min, the sample was eluted with a linear gradient of 5-100% solvent B over a period of 0.65 minutes followed by a 0.35 minutes hold. The column was prepared for the next sample by re-equilibrating over 0.25 minutes to the starting conditions. The column eluent was directly introduced into the ion source of the triple quadrupole mass spectrometer TQD™ (Waters Corporation, Milford, Mass., USA) controlled by Masslynx™ 4.1 software. Electrospray positive ionization (ESI+) multiple reaction monitoring was used for the MS/MS detection of the analyte. […] The limit of quantification (LOQ) for the compound was set to 0.7 ng/mL (CV and overall bias less than 30%). Regression analysis and further calculations were performed using QuanLynx™ 4.1 (Micromass) and Excel™ 2007 (Microsoft). Concentrations of unknown samples were back-calculated based on the peak area ratios of analyte/IS from a calibration curve constructed using calibration samples spiked in blank plasma or tissue obtained from animals treated with vehicle.
Areas under the plasma concentration versus time curves (AUC) were calculated from the mean values with linear trapezoidal rule, and further relevant parameters by using a non-compartmental model for extravascular dosing (WinNonlin® Professional Version 5.2, Pharsight corp., CA, US).

One may read the Tmax as the time at which the peak concentration occurs. In the case of `COc1ncc(-c2nc3c(n2C(C)C)[C@H](c2ccc(Cl)cc2)N(c2cc(Cl)cn(C)c2=O)C3=O)c(OC)n1` [Compound A, (S)-5-(5-Chloro-1-methyl-2-oxo-1,2-dihydro-pyridin-3-yl)-6-(4-chloro-phenyl)-2-(2,4-dimethoxy-pyrimidin-5-yl)-1-isopropyl-5,6-dihydro-1H-pyrrolo[3,4-d]imidazol-4-one], the “Cmax and AUC0-24 h in blood” value (after first p.o. treatment, 20 and 27 mg/kg q3w) was “dose-dependently increased”. For the same molecule, where the note is “i.v. 20 mg/kg on day 59 post first treatment”, the “exposure in heart, jejunum, spleen, liver and bone marrow compared to plasma” value was “twice as high as in plasma”. For the same molecule, the Tmax is, setting by setting: (nude (Harlan), rat, iv, single i.v. injection 20 mg/kg, liver) 5 min; (nude (Harlan), rat, iv, single i.v. injection 20 mg/kg, plasma) 5 min; (nude (Harlan), rat, iv, single i.v. injection 20 mg/kg, tumor) 60 min; (nude (Harlan), rat, single oral 27 mg/kg, all matrices (plasma, tumor and liver)) 180 min. Further, the AUC(0-t) (nude (Harlan), rat, single oral 27 mg/kg, plasma, read-out: AUC0-144 h) amounted to 112 µM·h. The “exposure in tumor compared to plasma” value (single i.v. injection 20 mg/kg) is recorded as “two times higher”. In addition, the AUC0-144 h dn (single i.v. injection 20 mg/kg, tumor) worked out at 16.5 nmol·h/g. The AUC0-144 h (single oral 27 mg/kg, tumor) worked out at 277.7 nmol·h/g.
